Assays:
[1] = test system: HLA-A*24:02 transgenic mouse; test: Test 8: in vivo adjuvant activity, vaccine e (Peptide SEQ ID No. 18), IFNγ ELISPOT; conditions: added to vaccine e; 0.4 nmol per body, twice; FIG. 5
Experimental: Evaluation of In Vivo Adjuvant Activity in HLA-A*24:02 Transgenic Mouse
The in vivo adjuvant activity of the compound of Example 1 was evaluated in the following procedure. To a vaccine prepared by mixing Peptide SEQ ID No. 18 prepared in Reference example 20 with Montanide ISA 51 VG (hereinafter, referred to as “vaccine e”) was added the compound prepared in Example 1 to prepare a vaccine. The vaccine was administered to a HLA-A*24:02 transgenic mouse, and the adjuvant activity of the vaccine was evaluated by the method of testing antigen-specific CTL induction. The TYAGCLSQIF in Peptide SEQ ID No. 18 corresponds to an antigen peptide derived from an HLA-A*24:02-restricted Or7c1 protein.
The character for inducing CTLs specific to the antigen peptide (SEQ ID No. 18) by vaccine e was evaluated by measuring whether IFNγ can be produced upon stimulation of splenocytes from the mouse with the peptide. In addition, the character for exerting in vivo adjuvant activity by the compound in Example 1 was evaluated by comparing the number of CTLs induced by vaccine e and the number of CTLs induced by the vaccine prepared by adding the compound prepared in Example 1 to vaccine e, and checking presence or absence of the increase on the number.
Specifically, Peptide of SEQ ID No. 18 was dissolved in DMSO, and then diluted with water for injection to concentrations of 3 mg/mL. […]

[2] = test system: HLA-A*02:01 transgenic mouse; test: Test 16: in vivo adjuvant activity, cocktail vaccine k (liposome formulation 1), IFNγ ELISPOT; conditions: added to cocktail vaccine k (liposome formulation 1); 0.4 nmol per body, twice; FIG. 19
Experimental: Evaluation of In Vivo Adjuvant Activity in HLA-A*02:01 Transgenic Mouse
The in vivo adjuvant activity of the compound of Example 1 was evaluated in the following procedure. To a vaccine (liposome formulation 1) comprising Compound of formula 4 prepared in Reference example 8 and Peptide SEQ ID No. 3 prepared in Reference example 3 (hereinafter, referred to as “cocktail vaccine k”) was added the compound prepared in Example 1 to prepare a vaccine. The vaccine was administered to a HLA-A*02:01 transgenic mouse, and the adjuvant activity of the vaccine was evaluated by the method of testing antigen-specific CTL induction.
For example, the above liposome formulation 1 was prepared as follows. 47.1 mg of hydrogenated soybean phosphatidylcholine and 15.47 mg of cholesterol were dissolved in t-butyl alcohol, and the mixture was lyophilized. […]
Cocktail vaccine k was injected to mice intradermally at the tail base area in an amount for administering 500 μg of Compound of formula 4 per body and 375 μg of Peptide SEQ ID No. 3 per body. […] Then, after removal of the supernatant from the wells, stained spots on the ELISPOT plate were counted.

Question: What does the source list for `CCCCCNc1nc(N)nc(C)c1Cc1ccc(CN(C)CCOCCOCCOCCOCCO)cc1OC` [Example 1, 1-(4-{[2-amino-4-methyl-6-(pentylamino)pyrimidin-5-yl]methyl}-3-methoxyphenyl)-2-methyl-5,8,11,14-tetraoxa-2-azahexadecan-16-ol·trifluoroacetate]?
Answer: CTL counts responsive to Peptide of SEQ ID No. 18 compared with adding no compound [1]: more; CTL counts responsive to Peptide SEQ ID No. 1 compared with adding no compound [2]: more
